Molecules are shown by their SMILES.

This assay addresses T1, Type-2 angiotensin II receptor (Homo sapiens, UniProt P50052).
T1 sequence (P50052 whole entry): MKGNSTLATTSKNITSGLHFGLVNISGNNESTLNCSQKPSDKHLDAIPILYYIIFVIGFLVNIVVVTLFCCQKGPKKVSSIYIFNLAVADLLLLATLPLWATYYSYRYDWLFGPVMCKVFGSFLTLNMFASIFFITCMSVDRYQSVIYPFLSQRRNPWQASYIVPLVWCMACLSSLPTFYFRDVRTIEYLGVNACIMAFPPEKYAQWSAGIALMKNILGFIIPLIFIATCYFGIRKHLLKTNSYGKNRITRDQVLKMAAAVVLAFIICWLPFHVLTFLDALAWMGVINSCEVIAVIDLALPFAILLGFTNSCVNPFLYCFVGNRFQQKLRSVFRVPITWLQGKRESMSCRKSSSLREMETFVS
Put plainly: AT2 Receptor Binding Assay: 120 μL membrane (5 mg protein/well) was incubated with 15 μL of [125I]-CGP42112A and 15 μL of compound at RT for 1.5 hrs. The binding reaction was stopped by rapid filtration through Unifilter GF/C plates (presoaked in 0.3% (v:v) BSA).Plate was washed three times with ice cold wash buffer.The filtration plates were dried at 37° C. overnight.50 μL of scintillation cocktail was added to each well.Radioactivity was determined using MicroBetaTriluxmicroplate scintillation counter.
A word on the IC50: it is the midpoint of a concentration-inhibition curve. With `COc1ccc2c(c1OCC#Cc1ccc(F)cc1)C[C@@H](C(=O)NS(=O)(=O)N(C)C)N(C(=O)C(c1ccccc1)c1ccccc1)C2`, the half-maximal inhibitory concentration (IC50) stood at 206 nM.

As to `COc1ccc2c(c1OCC#Cc1ccccc1)C[C@@H](C(=O)NS(=O)(=O)N(C)C)N(C(=O)C(c1ccccc1)c1ccccc1)C2`, the IC50 was 79.5 nM.

Take `COc1ccc2c(c1OCc1ccccc1)C[C@@H](C(=O)NS(=O)(=O)N(C)C)N(C(=O)C(c1ccccc1)c1ccccc1)C2`: the half-maximal inhibitory concentration (IC50) turned out to be 10.9 nM.

For the compound `COc1ccc2c(c1OCC#Cc1ccc(F)cc1)C[C@@H](C(=O)O)N(C(=O)C(c1ccccc1)c1ccccc1)C2`, the concentration for half-maximal inhibition (IC50) was 133 nM.

Turning to `COc1ccc2c(c1OCC#Cc1ccccc1)C[C@@H](C(=O)O)N(C(=O)C(c1ccccc1)c1ccccc1)C2`, the IC50 turned out to be 96.2 nM.

Take `O=C(O)[C@@H]1Cc2c(ccc(O)c2OCc2ccccc2)CN1C(=O)C(c1ccccc1)c1ccccc1`: the IC50 was 33.5 nM.
